What was measured:
late-stage cancers = conditions: patients with late-stage cancers (Pant et al, 2014); cited from earlier work
primary prostate cancer [1] = test: Cytotoxic monotherapy with idronoxil suppository in theobroma oil base in prostate cancer patients, PSA follow-up; assay type: in vivo, human
Experimental: Patient receiving chemical castration therapy presenting with undetectable testosterone and receiving Zolodex for primary prostate cancer has a PSA doubling time of 6 weeks (PSA=9.6). Patient received suppository comprising 400 mg idronoxil in theobroma oil suppository base daily for 4 weeks. […] Suppository treatment was stopped for a period of 2 weeks and then continued for 2 weeks.
Patient receiving chemical castration therapy having urinary obstruction and pelvic discomfort receiving 400 mg idronoxil suppository formulation for primary prostate cancer (PSA=19). Patient received suppository comprising 800 mg idronoxil in theobroma oil suppository based daily in 2 week courses for 15 months. The suppository formulation slowed tumour growth to a doubling time of 6 months (PSA=67 at completion of 15 month therapy).

[2] = tested on: wide range of cancer cell types; conditions: fold more potent than genistein; cited from earlier work
primary prostate cancer [3] = test: Oral administration of idronoxil to a prostate cancer patient, PSA follow-up; assay type: in vivo, human; parameters: PSA at completion of 2 week period: unit not given here
Experimental: Patient receiving chemical castration therapy presenting with undetectable testosterone and receiving Zolodex for primary prostate cancer (PSA=3.4). Patient received 400 mg idronoxil daily by oral administration, increasing to 800 mg daily for 2 weeks. PSA at completion of 2 week period=6.7 indicating doubling time of 1 month.

[4] = intravenously administered, cyclodextrin carrier (Howes et al, 2011); cited from earlier work
[5] = tested on: late-stage ovarian cancer; conditions: Phase 3, late-stage ovarian cancer, 142 women recruited (Fotopoulou et al. 2014); cited from earlier work
[6] = tested on: colo-rectal cancer cell lines (eg. HT-29, CaCo-2); conditions: HT-29, CaCo-2 (Alvero et al, 2008); cited from earlier work
primary prostate cancer [7] = test: Rectal idronoxil in olive oil (high oleic acid) base in a prostate cancer patient, PSA follow-up; assay type: in vivo, human
Experimental: Patient receiving chemical castration therapy presenting with undetectable testosterone and receiving Zolodex for primary prostate cancer (PSA=6.0). Patient received 400 mg idronoxil daily in olive oil base rectally for 3 weeks.

[8] = Brown et al, 2008; cited from earlier work
[9] = 400 mg theobroma oil suppository, after stop for 2 weeks, then continued for 2 weeks
[10] = suppository 800 mg in theobroma oil base daily in 2 week courses for 15 months, PSA at start 19

Structure (SMILES) | clinical benefit (late-stage cancers) | PSA score (primary prostate cancer [1]; [9]) | effect on tumour growth (primary prostate cancer [1]; [9]) | effect on tumour growth (primary prostate cancer [1]; suppository 400 mg in theobroma oil base daily for 4 weeks) | PSA score (primary prostate cancer [1]; suppository 400 mg in theobroma oil base daily for 4 weeks, PSA at start 9.6, doubling time 6 weeks) | PSA at completion of 15 month therapy (primary prostate cancer [1]; [10]) | tumour doubling time (primary prostate cancer [1]; [10]) [months] | potency as an anti-cancer agent compared to genistein [2] | effect on tumour doubling time (primary prostate cancer [3]; oral administration) | PSA doubling time (primary prostate cancer [3]; oral, 400 mg daily increasing to 800 mg daily for 2 weeks) [month] | PSA at completion of 2 week period (primary prostate cancer [3]; oral, 400 mg daily increasing to 800 mg daily for 2 weeks, chemical castration therapy, PSA at start 3.4) | conjugation [4] | clinical benefit [5] | sensitivity of colo-rectal cancer cell lines [6] | tumour growth during treatment (primary prostate cancer [7]; 400 mg daily in olive oil base rectally) | PSA at completion of 2 week period (primary prostate cancer [7]; 400 mg daily in olive oil base rectally for 3 weeks, PSA at start 6.0) | susceptibility to Phase 1 metabolic processes [8]
Oc1ccc(C2COc3cc(O)ccc3C2c2ccc(O)cc2)cc1 (centres unmarked) [ME-143, 4,4′-(7-hydroxychroman-3,4-diyl)diphenol] | failed to show any clinical benefit |  |  |  |  |  |  |  |  |  |  |  |  |  |  |  | 
Oc1ccc(C2=Cc3ccc(O)cc3OC2)cc1 [idronoxil, 2H-1-Benzopyran-7-0,1,3-(4-hydroxyphenyl)] |  | 10 | inhibitory effect on tumour growth | effectively stopped tumour growth | 10 | 67 | 6 | about 10 × | failed to reduce tumour doubling time | 1 | 6.7 | completely conjugated | lack of any clinical benefit | insensitivity | continual growth of tumour during the treatment period | 9.6 | not being particularly susceptible to Phase 1 metabolic processes
